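Values below derive from 48-hour exposures of cells grown in 96-well plates, with endpoints linearly interpolated between the two concentrations bracketing the appropriate inhibition level. Here, GI50 denotes the concentration required for 50% inhibition of growth.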 Calls of active or inactive are those of the source. Rule as the data show it: active = GI50 up to about 1.1 µM and inactive = higher.
Legend:
Test in all cases: NCI-60 cell line screen, 48 h
[1] = system: 786-0
[2] = system: A498
[3] = system: A549
[4] = system: ACHN
[5] = system: CCRF-CEM
[6] = system: COLO 205
[7] = system: DLD-1
[8] = system: DMS-114
[9] = system: DMS-273
[10] = system: EKVX
[11] = system: HCC 2998
[12] = system: HCT-116
[13] = system: HCT-15
[14] = system: HL-60
[15] = system: HOP-18
[16] = system: HOP-62
[17] = system: HOP-92
[18] = system: IGROV-1
[19] = system: K562
[20] = system: KM-20L2
[21] = system: KM12
[22] = system: LOX IMVI
[23] = system: LXFL 529
[24] = system: M14
[25] = system: M19-MEL
[26] = system: MOLT-4
[27] = system: Malme-3M
[28] = system: NCI-H23
[29] = system: NCI-H460
[30] = system: NCI-H522
[31] = system: OVCAR-3
[32] = system: OVCAR-4
[33] = system: OVCAR-5
[34] = system: OVCAR-8
[35] = system: RPMI-8226
[36] = system: RXF 393
[37] = system: RXF 631
[38] = system: SF-268
[39] = system: SF-295
[40] = system: SF-539
[41] = system: SK-MEL-28
[42] = system: SK-MEL-2
[43] = system: SK-OV-3
[44] = system: SN12C
[45] = system: SNB-19
[46] = system: SNB-75
[47] = system: SNB-78
[48] = system: SW-620
[49] = system: TK-10
[50] = system: U-251
[51] = system: UACC-257
[52] = system: UACC-62
[53] = system: UO-31
[54] = system: CAKI-1
[55] = system: HT-29
[56] = system: NCI-H226
[57] = system: SK-MEL-5
[58] = system: SR

## C[N+]1(C)C/C(=C/c2ccc(F)cc2)C(=O)/C(=C\c2ccc(F)cc2)C1
[1]
  GI50: 49.4 µM (inactive)
[2]
  GI50: 31.1 µM (inactive)
[3]
  GI50: 74 µM (inactive)
[4]
  GI50: > 100 µM (inactive)
[5]
  GI50: 23.7 µM (inactive)
[6]
  GI50: 60.7 µM (inactive)
[7]
  GI50: 30.2 µM (inactive)
[8]
  GI50: 22.8 µM (inactive)
[9]
  GI50: 30.6 µM (inactive)
[10]
  GI50: > 100 µM (inactive)
[11]
  GI50: > 100 µM (inactive)
[12]
  GI50: > 100 µM (inactive)
[13]
  GI50: > 100 µM
[14]
  GI50: 17.3 µM (inactive)
[15]
  GI50: > 100 µM (inactive)
[16]
  GI50: > 100 µM (inactive)
[17]
  GI50: > 100 µM (inactive)
[18]
  GI50: 26.1 µM (inactive)
[19]
  GI50: 28.2 µM (inactive)
[20]
  GI50: > 100 µM (inactive)
[21]
  GI50: 67.8 µM (inactive)
[22]
  GI50: > 100 µM (inactive)
[23]
  GI50: 38.9 µM (inactive)
[24]
  GI50: > 100 µM (inactive)
[25]
  GI50: 36.1 µM (inactive)
[26]
  GI50: 15.4 µM (inactive)
[27]
  GI50: 42.1 µM (inactive)
[28]
  GI50: 32.7 µM (inactive)
[29]
  GI50: 50.9 µM (inactive)
[30]
  GI50: 16.6 µM (inactive)
[31]
  GI50: 45.5 µM (inactive)
[32]
  GI50: > 100 µM (inactive)
[33]
  GI50: > 100 µM (inactive)
[34]
  GI50: 47.2 µM (inactive)
[35]
  GI50: 24.4 µM (inactive)
[36]
  GI50: > 100 µM (inactive)
[37]
  GI50: > 100 µM (inactive)
[38]
  GI50: 23.3 µM (inactive)
[39]
  GI50: 50.6 µM (inactive)
[40]
  GI50: 38.2 µM (inactive)
[41]
  GI50: 15 µM (inactive)
[42]
  GI50: 56.8 µM (inactive)
[43]
  GI50: > 100 µM (inactive)
[44]
  GI50: 2.14 µM (inactive)
[45]
  GI50: 49.3 µM (inactive)
[46]
  GI50: 53.8 µM (inactive)
[47]
  GI50: > 100 µM (inactive)
[48]
  GI50: 75.9 µM (inactive)
[49]
  GI50: > 100 µM (inactive)
[50]
  GI50: 16.4 µM (inactive)
[51]
  GI50: 24.7 µM (inactive)
[52]
  GI50: 13.8 µM (inactive)
[53]
  GI50: > 100 µM (inactive)

## COc1ccc(S(=O)(=O)N/N=C(\C)CN2C(=O)c3ccccc3C2=O)cc1
[1]
  GI50: > 100 µM (inactive)
[2]
  GI50: > 100 µM (inactive)
[3]
  GI50: > 100 µM (inactive)
[4]
  GI50: > 100 µM (inactive)
[54]
  GI50: > 100 µM (inactive)
[5]
  GI50: > 100 µM (inactive)
[6]
  GI50: > 100 µM (inactive)
[7]
  GI50: > 100 µM (inactive)
[8]
  GI50: > 100 µM (inactive)
[9]
  GI50: > 100 µM (inactive)
[10]
  GI50: > 100 µM (inactive)
[11]
  GI50: > 100 µM (inactive)
[12]
  GI50: > 100 µM (inactive)
[13]
  GI50: > 100 µM
[14]
  GI50: > 100 µM (inactive)
[15]
  GI50: > 100 µM (inactive)
[16]
  GI50: > 100 µM (inactive)
[55]
  GI50: > 100 µM (inactive)
[18]
  GI50: > 100 µM (inactive)
[19]
  GI50: > 100 µM (inactive)
[20]
  GI50: > 100 µM (inactive)
[21]
  GI50: > 100 µM (inactive)
[22]
  GI50: > 100 µM (inactive)
[23]
  GI50: > 100 µM (inactive)
[24]
  GI50: > 100 µM (inactive)
[25]
  GI50: > 100 µM (inactive)
[26]
  GI50: > 100 µM (inactive)
[27]
  GI50: > 100 µM (inactive)
[56]
  GI50: > 100 µM (inactive)
[28]
  GI50: > 100 µM (inactive)
[29]
  GI50: > 100 µM (inactive)
[30]
  GI50: > 100 µM (inactive)
[31]
  GI50: > 100 µM (inactive)
[32]
  GI50: > 100 µM (inactive)
[33]
  GI50: > 100 µM (inactive)
[34]
  GI50: > 100 µM (inactive)
[35]
  GI50: > 100 µM (inactive)
[37]
  GI50: > 100 µM (inactive)
[38]
  GI50: > 100 µM (inactive)
[39]
  GI50: > 100 µM (inactive)
[40]
  GI50: > 100 µM (inactive)
[41]
  GI50: > 100 µM (inactive)
[42]
  GI50: > 100 µM (inactive)
[57]
  GI50: > 100 µM (inactive)
[43]
  GI50: > 100 µM (inactive)
[44]
  GI50: > 100 µM (inactive)
[45]
  GI50: > 100 µM (inactive)
[46]
  GI50: > 100 µM (inactive)
[47]
  GI50: > 100 µM (inactive)
[58]
  GI50: > 100 µM (inactive)
[48]
  GI50: > 100 µM (inactive)
[49]
  GI50: > 100 µM (inactive)
[50]
  GI50: > 100 µM (inactive)
[51]
  GI50: > 100 µM (inactive)
[52]
  GI50: > 100 µM (inactive)
[53]
  GI50: > 100 µM (inactive)

Source: ChEMBL document CHEMBL1201862, “PubChem BioAssay data set” (2004)
